Measured values taken from patent US20160243075A2, “TETRAHYDROCANNABIVARIN (THC) FOR USE IN THE PROTECTION OF PANCREATIC ISLET CELLS” (GW Pharma Limited, priority 2014, published 2016).
“Also recorded” adds a separate entry of the source.

Legend:
[1] = Bodyweight change and food intake of db/db mice over the 28 day study (Example 1); format: in vivo; settings: male db/db mice, 10 mg/kg daily
Experimental: (§1) The phytocannabinoids CBD (10 mg/kg) and THCV (10 mg/kg) were tested along with AM 251 (10 mg/kg) which was used as a positive control.
(§2) On day 1 dosing commenced for groups A to D as outlined in Table 1.1 above. Animals were dosed daily at 17:00.

pancreatic islet cells = assay: Histology/morphology of insulin-stained pancreas in diabetic db/db mice (Example 1); format: in vivo; settings: male db/db mice, 10 mg/kg daily
Experimental: as §1
At the start of the study the Group E animals were sacrificed and a terminal blood sample was taken. In addition four of the animals pancreases were sampled for determination of β-cell area, islet size and β-cell mass by […].
as §2
At the end of the study the animals were sacrificed and a terminal blood sample was taken. In addition four of the animals pancreases were sampled for determination of islet β-cell area, islet size and islet β-cell mass by […].
The pancreases were stained for insulin and the pancreatic islet cells were examined under a microscope to determine the amount of insulin in the cells.

[2] = Blood samples for glucose and insulin in db/db mice (Example 1); format: in vivo
Experimental: as §1, §2

[3] = Oral glucose tolerance test in subjects with Type 2 diabetes at Visit 5 (Example 3 pilot study); format: in vivo, human; settings: 5 mg THCV twice daily, Visit 5 (Week 13), compared to placebo
Text: There were four arms in this study plus a placebo comparator. These were a 1:1 and 20:1 ratio of CBD:THCV, CBD alone and THCV alone. Assessment of the impact of each treatment on different parameters was made. Measurements were taken of high density lipoprotein (HDL) cholesterol, total cholesterol, low density lipoprotein (LDL) cholesterol, HDL/LDL ratio, serum triglycerides, apolipoprotein markers (Apo A & Apo B) and determination of ApoA/Apo B ratio.
(§3) Other measurements including: lipid parameters; glucose control (fasting plasma glucose, glucose tolerance, serum fructosamine, glycosylated haemoglobin A1c (HbA1c) (whole blood)); Insulin sensitivity (insulin resistance); body weight & body mass index (BMI); adipose tissue distribution (total % body fat content, waist circumference, neck circumference, waist-to-hip ratio, visceral adiposity, liver triglyceride content); and appetite 11 point numerical rating scale (0-10 NRS).
(§4) The study took place over 15-19 weeks (1-5 week baseline and 13 week treatment period and 1 week follow-up), and was a multicentre, randomised, double blind, placebo controlled, parallel group pilot study which evaluated the test compounds on lipid parameters in subjects with Type 2 diabetes.
Further study visits took place at the end of Week 4 of treatment (Visit 3, Day 29), and again at the end of treatment at Week 13 (Visit 5, Day 92). […]

[4] = HOMA2 insulin sensitivity, change from baseline, subjects with Type 2 diabetes (Example 3); format: in vivo, human; settings: 5 mg THCV twice daily, end of study period, FIG. 16
Text: as §3, §4
(§5) Further study visits took place at the end of Week 4 of treatment (Visit 3, Day 29), and again at the end of treatment at Week 13 (Visit 5, Day 92). Subjects were asked to fast overnight before Visits 1 (or 1B), 2 and 5 (minimum 8 hours). A telephone assessment was also performed at Day 57 (Visit 4) and at Week 14 (Visit 6, Day 99) for safety follow-up.
(§6) As this was a pilot study, a formal sample size calculation was not required. Each treatment group consisted of 10 subjects. There was five treatment groups 1:1 and 20:1 ratio of CBD:THCV plus CBD alone, THCV alone and placebo. […]

beta cell function = assay: HOMA2 beta cell function, change from baseline, subjects with Type 2 diabetes (Example 3); format: in vivo, human; settings: 5 mg THCV twice daily, end of study period, FIG. 17
Text: as §3, §4, §5, §6

[5] = test system: Glucagon-Like Peptide 1 (GLP-1); assay: Serum glucagon-like peptide 1 (GLP-1) levels, change from baseline, subjects with Type 2 diabetes (Example 3); format: in vivo, human; settings: oral 5 mg THCV twice daily, FIG. 18
Text: Laboratory assessments included; physical examination; markers of vascular function; markers of adipocyte function including leptin and adiponectin; markers of inflammation including cytokines; retinol binding protein (RBP4) concentration; orexin type A (Orexin A) concentration; gut signalling hormone (Gastric Inhibitory Peptide (GIP), Glucagon-like peptide-1 (GLP-1), ghrelin) concentrations; ketone bodies; and endocannabinoid plasma levels.
as §4, §5
As this was a pilot study, a formal sample size calculation was not required. Each treatment group consisted of 10 subjects. There was five treatment groups 1:1 and 20:1 ratio of CBD:THCV plus CBD alone, THCV alone and placebo.

CB-1 receptor = CB-1 receptor (Homo sapiens, UniProt P21554); settings: receptor binding studies, GB 2434097; cited from earlier work
CB-1 receptor, sequence (P21554 whole entry): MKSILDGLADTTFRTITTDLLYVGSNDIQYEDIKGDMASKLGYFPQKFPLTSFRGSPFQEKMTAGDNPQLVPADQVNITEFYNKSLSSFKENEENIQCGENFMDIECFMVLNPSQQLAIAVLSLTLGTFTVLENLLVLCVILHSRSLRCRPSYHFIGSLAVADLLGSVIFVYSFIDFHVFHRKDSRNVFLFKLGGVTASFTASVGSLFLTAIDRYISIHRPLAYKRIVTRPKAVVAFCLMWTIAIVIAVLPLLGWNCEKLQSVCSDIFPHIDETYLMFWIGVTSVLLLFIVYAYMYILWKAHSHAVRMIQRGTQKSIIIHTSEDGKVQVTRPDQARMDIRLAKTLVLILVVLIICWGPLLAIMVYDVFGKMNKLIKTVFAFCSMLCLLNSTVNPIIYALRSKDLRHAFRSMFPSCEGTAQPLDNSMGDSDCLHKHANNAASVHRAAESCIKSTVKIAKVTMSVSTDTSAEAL

SMILES	food intake [1]	weight gain (bodyweight change over the study period) ([1]; FIG. 6)	retention of insulin in the pancreatic islet (insulin staining, histology) (pancreatic islet cells; 28 day study, FIGS. 2-5, 10 mg/kg)	pancreatic islet beta cell mass (morphological analysis) (pancreatic islet cells; end of study, FIG. 8)	blood glucose concentration during a 24 hour period ([2]; male db/db mice, 10 mg/kg daily, FIG. 7)	reduction in blood glucose ([2]; male db/db mice, 10 mg/kg daily, conclusion of Example 1)	fasting insulin ([2]; rodent model of diabetes)	concentration of insulin during oral glucose tolerance test, mean change from baseline ([3]; FIG. 14)	concentration of blood glucose during oral glucose tolerance test, mean change from baseline ([3]; FIG. 15)	HOMA2 insulin sensitivity, mean change from baseline [4]	HOMA2 beta cell function, mean change from baseline (beta cell function)	change from baseline in mean serum GLP-1 levels [5]	CB-1 receptor pharmacology (CB-1 receptor)
Cc1c(C(=O)NN2CCCCC2)nn(-c2ccc(Cl)cc2Cl)c1-c1ccc(I)cc1 [AM 251]	slightly lower												
C=C(C)[C@@H]1CCC(C)=C[C@H]1c1c(O)cc(CCCCC)cc1O [CBD, cannabidiol]		increased weight gain											
CCCc1cc(O)c2c(c1)OC(C)(C)[C@@H]1CCC(C)=C[C@@H]21 [THCV, Tetrahydrocannabivarin]	slightly lower		greater retention of insulin in the pancreatic islet than both AM251 and CBD; also recorded: statistically more insulin present in the pancreatic islets	higher in the THCV treated animals than in the vehicle and CBD and AM251 treated groups	more controlled during a 24 hour period	without having a profound reduction in blood glucose	reduction in fasting insulin	increases over the first hour and then reduces down to the same level as the placebo after 2 hours	quickly reducing the blood glucose level compared to placebo	increased sensitivity to insulin	much increased beta cell function compared to all the other groups	highest increase in GLP-1	neutral antagonist
